The values that follow come from US20240158446A1, “CYCLIC COMPOUND HAVING SELECTIVE INHIBITORY ACTION ON KRAS OVER HRAS AND NRAS” (CHUGAI SEIYAKU KABUSHIKI KAISHA, priority 2021, published 2024).

By Kd is commonly meant the concentration at which binding is half-saturated.

Test [1] concerns the target GDP-bound KRAS wild-type protein (Homo sapiens, UniProt P01116). Put plainly: Binding to KRAS by surface plasmon resonance (SPR), Single Cycle Kinetics. The note with it: SPR, Single Cycle Kinetics, GDP-bound KRAS wild-type protein; read-out: KRAS KD. (SPR reads the build-up and loss of mass on a sensor chip optically.)
Test [2] addresses GDP-bound NRAS wild-type protein (Homo sapiens, UniProt P01111). Put plainly: Binding to NRAS by surface plasmon resonance (SPR), Single Cycle Kinetics. The note with it: ratio of KD for GDP-bound NRAS wild-type protein to KD for KRAS, SPR.
Test [3] deals with GDP-bound HRAS wild-type protein (Homo sapiens, UniProt P01112). Description: Binding to HRAS by surface plasmon resonance (SPR), Single Cycle Kinetics. The note with it: ratio of KD for GDP-bound HRAS wild-type protein to KD for KRAS, SPR.
GDP-bound HRAS wild-type protein, sequence (P01112 whole entry): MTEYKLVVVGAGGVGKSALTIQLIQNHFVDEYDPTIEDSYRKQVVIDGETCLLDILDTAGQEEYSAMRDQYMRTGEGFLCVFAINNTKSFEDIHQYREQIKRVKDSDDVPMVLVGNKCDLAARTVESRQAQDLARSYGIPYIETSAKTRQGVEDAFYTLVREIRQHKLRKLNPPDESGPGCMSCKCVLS
Test [4] deals with human lung cancer strain NCI-H441. Put plainly: cells. Conditions: NCI-H441, 96 h, read-out: NCI-H441 IC50 (nM), NCI-H441 cell proliferation, 4 days, CellTiter-Glo.
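Throughout, for IC50: cell proliferation inhibition after four days measured by CellTiter-Glo.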

GDP-bound NRAS wild-type protein, sequence (P01111 whole entry): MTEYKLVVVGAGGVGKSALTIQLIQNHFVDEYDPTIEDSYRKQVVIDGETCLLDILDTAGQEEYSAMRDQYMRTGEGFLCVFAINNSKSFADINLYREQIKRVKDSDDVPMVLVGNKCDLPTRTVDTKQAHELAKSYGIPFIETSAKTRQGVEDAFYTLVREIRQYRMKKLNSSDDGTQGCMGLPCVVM
GDP-bound KRAS wild-type protein, sequence (P01116 whole entry): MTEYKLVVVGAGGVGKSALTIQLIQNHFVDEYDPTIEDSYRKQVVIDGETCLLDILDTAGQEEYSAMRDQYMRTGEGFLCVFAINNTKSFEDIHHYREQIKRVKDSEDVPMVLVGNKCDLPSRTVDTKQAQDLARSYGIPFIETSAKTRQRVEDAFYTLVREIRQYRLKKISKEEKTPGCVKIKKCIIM

As for `CCO[C@@H]1C[C@H]2C(=O)NC3(CC(C)(C)C3)C(=O)N(C)[C@@H](C3CCCC3)C(=O)N(C)[C@H](C3CCC3)CC(=O)N(C)[C@@H](CC3CC3)C(=O)N[C@@H]([C@@H](C)CC)C(=O)N(C)CC(=O)N(C)[C@H]3C/C=C\CCN(C3=O)[C@@H](Cc3ccc(C(F)(F)F)cc3)C(=O)N(C)CC(=O)N[C@@H](CCc3cc(F)c(C(F)(F)F)c(F)c3)C(=O)N2C1` [PP1635], in test [1], the dissociation constant (Kd) was 0.64 nM. For the same compound, in test [2], the “NRAS/KRAS (KD ratio)” value was “B (a compound having 3 or more and less than 10 is denoted as B)”. Also, the “HRAS/KRAS (KD ratio)” value in test [3] is “A (a compound having 10 or more and less than 20 is denoted as A)”. In test [4], the IC50 was found to be 36.3 nM.

Consider `CCCN(C)C(=O)[C@@H]1CC(=O)N(C)[C@@H](COC)C(=O)N[C@@H]([C@@H](C)CC)C(=O)N(C)CC(=O)N(C)[C@H]2C/C=C\CCN(C2=O)[C@@H](Cc2ccc(C(F)(F)F)cc2)C(=O)N(C)CC(=O)N[C@@H](CCc2cc(F)c(C(F)(F)F)c(F)c2)C(=O)N2C[C@H](OCC)C[C@H]2C(=O)NC2(CC(C)(C)C2)C(=O)N(C)[C@@H](C2CCCC2)C(=O)N1C` [PP1672], for which the Kd in test [1] was 0.087 nM. Moreover, in test [2], the “NRAS/KRAS (KD ratio)” value is “A (a compound having 10 or more and less than 20 is denoted as A)”. Moreover, in test [3], the “HRAS/KRAS (KD ratio)” value is “A (a compound having 10 or more and less than 20 is denoted as A)”. Moreover, the IC50 in test [4] is 6 nM.

As to `CCO[C@@H]1C[C@H]2C(=O)NC3(CC(C)(C)C3)C(=O)N(C)[C@@H](C3CCCC3)C(=O)N(C)[C@H](C(=O)N(C)CC)CC(=O)N(C)[C@@H](C3CC3)C(=O)N[C@@H]([C@@H](C)CC)C(=O)N(C)CC(=O)N(C)[C@H]3C/C=C\CCN(C3=O)[C@@H](Cc3ccc(C(F)(F)F)cc3)C(=O)N(C)CC(=O)N[C@@H](CCc3ccc(C(F)(F)F)c(OC)c3)C(=O)N2C1` [PP1981], in test [1], the Kd amounted to 0.1 nM. Moreover, the “NRAS/KRAS (KD ratio)” value in test [2] is “A (a compound having 10 or more and less than 20 is denoted as A)”. Further, the “HRAS/KRAS (KD ratio)” value in test [3] is “A (a compound having 10 or more and less than 20 is denoted as A)”. Further, in test [4], the IC50 came out at 20.7 nM.

Consider `CCC[C@H]1C(=O)N[C@@H]([C@@H](C)CC)C(=O)N(CCC)CC(=O)N(C)[C@H]2C/C=C\CCN(C2=O)[C@@H](Cc2ccc(C(F)(F)F)cc2)C(=O)N(C)CC(=O)N[C@@H](CCc2cc(F)c(C(F)(F)F)c(F)c2)C(=O)N2C[C@H](OCC)C[C@H]2C(=O)NC2(CCC2)C(=O)N(C)[C@@H](C2CCCC2)C(=O)N(C)[C@H](C(=O)N(C)C)CC(=O)N1C` [PP1767], for which, in test [1], the Kd came out at 0.34 nM. In addition, the “NRAS/KRAS (KD ratio)” value in test [2] was “A (a compound having 10 or more and less than 20 is denoted as A)”. The “HRAS/KRAS (KD ratio)” value in test [3] is “B (a compound having 3 or more and less than 10 is denoted as B)”. For the same compound, the IC50 in test [4] is 17.9 nM.

For the compound `CCO[C@@H]1C[C@H]2C(=O)NC3(CC(C)(C)C3)C(=O)N(C)[C@@H](C3CCCC3)C(=O)N(C)[C@H](C(=O)N(C)C)CC(=O)N(C)[C@@H](CC3CC3)C(=O)N[C@@H]([C@@H](C)CC)C(=O)N(C)CC(=O)N(C)[C@H]3C/C=C\CCN(C3=O)[C@@H](Cc3ccc(C(F)(F)F)cc3)C(=O)N(C)CC(=O)N[C@@H](CCc3cc(F)c(Cl)c(F)c3)C(=O)N2C1` [PP1759], in test [1], the Kd is 0.15 nM. The “NRAS/KRAS (KD ratio)” value in test [2] is “A (a compound having 10 or more and less than 20 is denoted as A)”. Also, the “HRAS/KRAS (KD ratio)” value in test [3] was “A (a compound having 10 or more and less than 20 is denoted as A)”. The IC50 in test [4] was determined as 6.2 nM.

On to `CCO[C@@H]1C[C@H]2C(=O)NC3(CC(C)(C)C3)C(=O)N(C)[C@@H](C3CCCC3)C(=O)N(C)[C@H](C(=O)N(C)C)CC(=O)N(C)[C@@H](CC3CCC3)C(=O)N[C@@H]([C@@H](C)CC)C(=O)N(C)CC(=O)N(C)[C@H]3C/C=C\CCN(C3=O)[C@@H](Cc3ccc(C(F)(F)F)cc3)C(=O)N(C)CC(=O)N[C@@H](CCc3cc(F)c(Cl)c(F)c3)C(=O)N2C1` [PP1762], for which, in test [1], the Kd stood at 0.26 nM. In test [2], the “NRAS/KRAS (KD ratio)” value was “A (a compound having 10 or more and less than 20 is denoted as A)”. Besides, the “HRAS/KRAS (KD ratio)” value in test [3] was “A (a compound having 10 or more and less than 20 is denoted as A)”. For the same compound, in test [4], the IC50 was determined as 8.4 nM.
